In the CheMixHub ionic liquid set:

Assay: xn = mol fraction of the nth substance listed

CC(=O)[O-].CC[n+]1ccn(C)c1 + CS(C)=O
298.1 K, 100 kPa
Conditions	electrical conductivity [S/m]
x1 = 0.108	0.94
x1 = 0.653	0.65

CC[NH+](CC)CC.O=S(=O)([O-])O + CS(C)=O
101 kPa
Conditions	viscosity [mPa·s]
298.15 K, x1 = 0.011	3.84
298.15 K, x2 = 0.0244	228
298.15 K, x2 = 0.199	178
298.15 K, x2 = 0.9539	9.02
303.15 K, x1 = 0.011	3.01
303.15 K, x2 = 0.653	40.58
308.15 K, x2 = 0.2473	97.6
308.15 K, x2 = 0.4004	74.6

CC[n+]1ccn(C)c1.CS(=O)(=O)[O-] + CS(C)=O
101 kPa, x1 = 0.3333
Conditions	viscosity [mPa·s]
283.15 K	5.66
288.15 K	5.04
293.15 K	4.47
298.15 K	3.94
303.15 K	3.47
308.15 K	3.04
313.15 K	2.66
318.15 K	2.33
323.15 K	2.05
328.15 K	1.81
333.15 K	1.63
338.15 K	1.49
343.15 K	1.4
348.15 K	1.36
353.15 K	1.33

CCCO + C[C@H](N)C(=O)[O-].C[N+](C)(C)CCO
100 kPa, x2 = 0
Conditions	viscosity [mPa·s]
288.12 K	2.19
289.34 K	2.13
290.54 K	2.07
291.73 K	2
292.91 K	1.95
294.09 K	1.89
295.27 K	1.84
296.45 K	1.78
297.63 K	1.73
298.8 K	1.68
299.98 K	1.63
301.16 K	1.58
302.33 K	1.52
303.51 K	1.48
304.68 K	1.43
305.86 K	1.38
307.04 K	1.34
308.21 K	1.29

CC(=O)[O-].CC[n+]1ccn(C)c1 + Cn1ccnc1 + CCOC(C)=O
298.15 K, 101 kPa, x1 = 1, x2 = 0
Conditions	electrical conductivity [S/m]	viscosity [mPa·s]
–	0.297	133.9

CCCC[n+]1ccn(C)c1.N#C[N-]C#N + F[B-](F)(F)F.[Li+]
101 kPa, x1 = 1
Conditions	electrical conductivity [S/m]
288.15 K	0.596
298.15 K	0.925
333.15 K	2.77

CCCC[n+]1ccn(C)c1.N#C[N-]C#N + F[P-](F)(F)(F)(F)F.[Li+]
101 kPa, x1 = 1
Conditions	electrical conductivity [S/m]
288.15 K	0.596
298.15 K	0.925
333.15 K	2.77

CC(=O)[O-].CC[n+]1ccn(C)c1 + N#C[S-].[Na+]
101 kPa, x2 = 0
Conditions	electrical conductivity [S/m]	viscosity [mPa·s]
303.15 K	0.374	93.6
313.15 K	0.587	55.5

CCCC[N+](C)(CCCC)CCCC.[Cl-] + NC(N)=NCCC[C@H](N)C(=O)O + O
313.15 K, 101.3 kPa
Conditions	viscosity [mPa·s]
x2 = 0, x1 = 0.0007203	0.67
x2 = 0, x1 = 0.00144	0.7

C=CC[n+]1ccn(C)c1.[Cl-] + NC(N)=O
101 kPa
Conditions	electrical conductivity, 298 K [S/m]	electrical conductivity, 308 K [S/m]	electrical conductivity, 318 K [S/m]	electrical conductivity, 328 K [S/m]	electrical conductivity, 338 K [S/m]	viscosity, 298.15 K [mPa·s]
x1 = 0.5579	0.169	0.228	0.287	0.342	0.416	405
x1 = 0.6543	0.222	0.298	0.372	0.448	0.538	353
x1 = 0.7911	0.283	0.372	0.464	0.562	0.677	299
x1 = 1	0.411	0.498	0.618	0.736	0.862	255

CCOC(=O)C[n+]1ccn(C)c1.[Cl-] + NC(N)=O
101 kPa
Conditions	electrical conductivity, 298 K [S/m]	electrical conductivity, 308 K [S/m]	electrical conductivity, 318 K [S/m]	electrical conductivity, 328 K [S/m]	electrical conductivity, 338 K [S/m]	viscosity, 298.15 K [mPa·s]
x1 = 0.4945	0.282	0.347	0.414	0.489	0.602	567
x1 = 0.5947	0.346	0.433	0.51	0.607	0.722	482
x1 = 0.7459	0.419	0.525	0.631	0.741	0.883	415
x1 = 1	0.509	0.636	0.764	0.916	1.06	349
